pEC50, pIC50: −log10 of the molar value. One block for each compound: values may come before it.
Experiments:
[1] = biological target: T1, CLR/RAMP2 (Homo sapiens, UniProt O60895+Q16602); experiment: CLR/RAMP2 PathHunter β-arrestin assay, agonist mode; format: cell-based; settings: for CLR/RAMP2 Max Activity % of control: agonist mode, positive control ADM, CHO-K1 cells
Description: (§1) The bioactivity of synthetic analogs was studied using cells that stably express CLR/RAMP1 (1321N1 cells) or CLR/RAMP2 (CHO-K1 cells) receptors using CLR/RAMP1 cAMP and CLR/RAMP2 arrestin assays from DiscoveRx (Fremont, Ca). In receptor-activation assays, the dose-dependent stimulatory response was studied in duplicate, at 10 different concentrations.
(§2) The CLR/RAMP2 signaling was assayed using the CLR/RAMP2 PathHunter β-Arrestin assay. In this assay, the GPCR was fused in frame with a small enzyme donor fragment ProLink (PK) and co-expressed in cells stably expressing a fusion protein of β-arrestin and an N-terminal deletion mutant of β-galactosidase (i.e., enzyme acceptor or EA). Activation of the CLR/RAMP2 stimulates binding of β-arrestin to the PK-tagged receptor and leads to an increase in enzyme activity that can be measured using chemiluminescent PathHunter Detection Reagents. PathHunter cell lines were seeded in white walled, 384-well microplates and incubated at 37C prior to testing. For agonist determination, intermediate dilution of sample stocks was performed to generate 5X sample in assay buffer, and 5 μl of 5X sample was added to cells and incubated at 37C for 90 minutes. Vehicle concentration was 1%. For antagonistic activity determination, cells were pre-incubated with antagonist followed by agonist challenge at the EC80 concentration.

[2] = biological target: T2, CLR/RAMP1 (Homo sapiens, UniProt O60894+Q16602); experiment: CLR/RAMP1 cAMP assay, agonist mode (DiscoveRx HitHunter cAMP XS+); format: cell-based; settings: for CLR/RAMP1 Max Activity % of control: agonist mode, positive control CGRP, 1321N1 cells
T2 sequence (Q16602 23-461): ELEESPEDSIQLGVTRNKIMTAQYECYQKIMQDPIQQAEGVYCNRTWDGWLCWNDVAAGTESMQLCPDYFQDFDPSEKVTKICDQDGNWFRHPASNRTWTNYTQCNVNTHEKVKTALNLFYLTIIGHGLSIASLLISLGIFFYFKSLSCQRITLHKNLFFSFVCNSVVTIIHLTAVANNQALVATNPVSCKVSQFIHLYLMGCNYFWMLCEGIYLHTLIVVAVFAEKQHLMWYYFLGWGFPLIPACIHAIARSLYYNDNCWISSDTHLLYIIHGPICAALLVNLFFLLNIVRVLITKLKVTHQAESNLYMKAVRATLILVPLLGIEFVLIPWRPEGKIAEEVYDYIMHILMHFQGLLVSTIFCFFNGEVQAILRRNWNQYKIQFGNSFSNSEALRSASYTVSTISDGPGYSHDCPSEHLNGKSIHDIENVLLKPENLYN
T2 sequence (O60894 27-148): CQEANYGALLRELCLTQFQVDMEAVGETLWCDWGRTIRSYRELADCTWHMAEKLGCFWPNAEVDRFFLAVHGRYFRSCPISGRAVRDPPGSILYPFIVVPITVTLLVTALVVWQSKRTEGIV
Description: as §1
For the analysis of signaling in CLR/RAMP1-expressing cells, cAMP Hunter cell lines were expanded from freezer stocks, and cells were seeded in white walled, 384-well microplates and incubated at 37C for the appropriate time. The activity was determined using the DiscoveRx HitHunter cAMP XS+ assay. Media was aspirated from cells and replaced with 15 μl 2:1 HBSS/10mM Hepes:cAMP XS+ Ab reagent. Intermediate dilution of sample stocks was performed to generate 4X sample in assay buffer, and 5 μl of 4X sample was added to cells and incubated at 37C or room temperature for the appropriate time. Vehicle concentration was 1%.
Microplates were read with a PerkinElmer instrument for chemiluminescent signal detection.

[3] = biological target: T1, CLR/RAMP2; experiment: CLR/RAMP2 PathHunter β-arrestin assay, antagonist mode (ADM challenge at EC80); format: cell-based; settings: for pIC50: inhibition of ADM-mediated signaling, CHO-K1 cells, pre-incubation with antagonist, then agonist at EC80, β-arrestin read-out; for Emax: maximum inhibition of ADM-mediated signaling, in % of a positive control, read-out: CLR/RAMP2 Max Activity % of control (antagonistic)
Description: as §1, §2

[4] = biological target: T2, CLR/RAMP1; experiment: CLR/RAMP1 cAMP assay, antagonist mode (CGRP challenge at EC80); format: cell-based; settings: for Emax: maximum inhibition of CGRP-mediated signaling, in % of a positive control, read-out: CLR/RAMP1 Max Activity % of control (antagonistic)
[5] = biological target: CLR/RAMP2 receptor complex (UniProt Q16602)
Chain of CLR/RAMP2 receptor complex (Q16602 23-461, chain 1 of 2): as the sequence (Q16602 23-461) above
Chain of CLR/RAMP2 receptor complex (O60895 43-175, chain 2 of 2, further chain): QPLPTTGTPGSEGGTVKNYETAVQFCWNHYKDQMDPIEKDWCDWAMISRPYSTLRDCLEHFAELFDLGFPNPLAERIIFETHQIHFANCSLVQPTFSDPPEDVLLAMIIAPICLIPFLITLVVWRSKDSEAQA

[6] = biological target: CLR/RAMP2 receptor complex (UniProt Q16602); remark: listed apart in the source
[7] = biological target: CLR/RAMP1 receptor complex (UniProt Q16602)
Chain of CLR/RAMP1 receptor complex (Q16602 23-461, chain 1 of 2): as the sequence (Q16602 23-461) above
Chain of CLR/RAMP1 receptor complex (O60894 27-148, chain 2 of 2, further chain): as the sequence (O60894 27-148) above

T1 sequence (Q16602 23-461): as the sequence (Q16602 23-461) above
T1 sequence (O60895 43-175): as the sequence (O60895 43-175, chain 2 of 2, further chain) above

Compound: CCCCCCCCCCCCCCCC(=O)NCC(=O)N[C@H]1CSSC[C@@H](C(=O)N[C@H](C(=O)N[C@H](C(=O)N[C@@H](CCC(N)=O)C(=O)N[C@@H](CCCCN)C(=O)N[C@@H](CC(C)C)C(=O)N[C@@H](C)C(=O)N[C@@H](Cc2c[nH]cn2)C(=O)N[C@@H](CCC(N)=O)C(=O)N[C@H](C(=O)N[C@@H](Cc2ccc(O)cc2)C(=O)N[C@@H](CCC(N)=O)C(=O)N[C@@H](Cc2ccccc2)C(=O)N[C@H](C(=O)N[C@@H](CC(=O)O)C(=O)N[C@@H](CCCCN)C(=O)N[C@@H](CC(=O)O)C(=O)N[C@@H](CCCCN)C(=O)N[C@@H](CC(=O)O)C(=O)N[C@@H](CC(N)=O)C(=O)N[C@H](C(=O)N[C@@H](C)C(=O)N2CCC[C@H]2C(=O)N[C@@H](CCCNC(=N)N)C(=O)N[C@@H](CO)C(=O)N[C@@H](CCCCN)C(=O)N[C@H](C(=O)N[C@@H](CO)C(=O)N2CCC[C@H]2C(=O)N[C@@H](CCC(N)=O)C(=O)NCC(=O)N[C@@H](Cc2ccc(O)cc2)C(N)=O)[C@@H](C)CC)C(C)C)[C@@H](C)O)[C@@H](C)CC)C(C)C)[C@@H](C)O)NC(=O)[C@H]([C@@H](C)O)NC(=O)CNC(=O)[C@H](Cc2ccccc2)NC(=O)[C@H](CCCNC(=N)N)NC1=O [Agonist 3]
- CLR/RAMP2 Max Activity % of control [1]: 78 % of control

Compound: CC[C@H](C)[C@H](NC(=O)[C@H](CCCCN)NC(=O)[C@H](CO)NC(=O)[C@H](CCCNC(=N)N)NC(=O)[C@@H]1CCCN1C(=O)[C@H](C)NC(=O)[C@@H](NC(=O)[C@H](CC(N)=O)NC(=O)[C@H](CC(=O)O)NC(=O)[C@H](CCCCN)NC(=O)[C@H](CC(=O)O)NC(=O)[C@H](CCCCN)NC(=O)[C@H](CC(=O)O)NC(=O)[C@@H](NC(=O)[C@H](Cc1ccccc1)NC(=O)[C@H](CCCNC(=N)N)NC(=O)[C@H](CO)NC(=O)[C@H](CC(C)C)NC(=O)[C@H](CC(C)C)NC(=O)CNC(=O)[C@H](C)NC(=O)[C@H](CC(C)C)NC(=O)[C@H](CCCNC(=N)N)NC(=O)[C@H](Cc1c[nH]cn1)NC(=O)[C@@H](NC(=O)[C@@H](N)C(C)C)[C@@H](C)O)[C@@H](C)O)C(C)C)C(=O)N[C@@H](CO)C(=O)N1CCC[C@H]1C(=O)N[C@@H](CCC(N)=O)C(=O)NCC(=O)N[C@@H](Cc1ccc(O)cc1)C(N)=O [Antagonist 1–5]
- pIC50 [3]: 6.93
- Emax [3]: 100%
- pIC50 [4]: 5.73
- Emax [4]: 99%

Compound: ADM22-52 (peptide)
- IC50 of inhibition of ADM-mediated CLR/RAMP2 β-arrestin signalling (EC80 of ADM; pair blocked: ADM + m25) [6]: 256 nM
- IC50 of inhibition of CGRP-mediated CLR/RAMP1 cAMP signalling (EC80 of CGRP; pair blocked: m4 + m24) [7]: 6600 nM

Compound: CC[C@H](C)[C@H](NC(=O)[C@H](CCC(N)=O)NC(=O)[C@H](Cc1c[nH]cn1)NC(=O)[C@H](C)NC(=O)[C@H](CC(C)C)NC(=O)[C@H](CCCCN)NC(=O)[C@H](CCC(N)=O)NC(=O)[C@@H](NC(=O)[C@@H](NC(=O)[C@@H]1CSSC[C@H](NC(=O)CNC(=O)[C@@H](N)CCCCN)C(=O)N[C@@H](CCCNC(=N)N)C(=O)N[C@@H](Cc2ccccc2)C(=O)NCC(=O)N[C@@H]([C@@H](C)O)C(=O)N1)[C@@H](C)O)C(C)C)C(=O)N[C@@H](Cc1ccc(O)cc1)C(=O)N[C@@H](CCC(N)=O)C(=O)N[C@@H](Cc1ccccc1)C(=O)N[C@H](C(=O)N[C@@H](CC(=O)O)C(=O)N[C@@H](CCCCN)C(=O)N[C@@H](CC(=O)O)C(=O)N[C@@H](CCCCN)C(=O)N[C@@H](CC(=O)O)C(=O)N[C@@H](CC(N)=O)C(=O)N[C@@H](CO)C(=O)N[C@@H](C)C(=O)N1CCC[C@H]1C(=O)N[C@H](C(=O)N[C@@H](CC(=O)O)C(=O)N1CCC[C@H]1C(=O)N[C@@H](CO)C(=O)N[C@@H](CO)C(=O)N1CCC[C@H]1C(=O)N[C@@H](Cc1c[nH]cn1)C(=O)N[C@@H](CO)C(=O)N[C@@H](Cc1ccc(O)cc1)C(N)=O)C(C)C)[C@@H](C)O [Agonist 2]
- pEC50 ([2]; 1321N1 cells stably expressing CLR/RAMP1, cAMP read-out, chemiluminescence, 10-point dose response, 3-fold dilution, in duplicate): 7.51
- CLR/RAMP1 Max Activity % of control [2]: 95 % of control
- pEC50 ([1]; CHO-K1 cells stably expressing CLR/RAMP2, β-arrestin recruitment, 90 min at 37C, 10-point dose response in duplicate): 7.74
- CLR/RAMP2 Max Activity % of control [1]: 115 % of control

Compound: CC[C@H](C)[C@H](NC(=O)[C@H](CCC(N)=O)NC(=O)[C@H](Cc1c[nH]cn1)NC(=O)[C@H](C)NC(=O)[C@H](CC(C)C)NC(=O)[C@H](CCCCN)NC(=O)[C@H](CCC(N)=O)NC(=O)[C@@H](NC(=O)[C@@H](N)[C@@H](C)O)C(C)C)C(=O)N[C@@H](Cc1ccc(O)cc1)C(=O)N[C@@H](CCC(N)=O)C(=O)N[C@@H](Cc1ccccc1)C(=O)N[C@H](C(=O)N[C@@H](CC(=O)O)C(=O)N[C@@H](CCCCN)C(=O)N[C@@H](CC(=O)O)C(=O)N[C@@H](CCCCN)C(=O)N[C@@H](CC(=O)O)C(=O)N[C@@H](CC(N)=O)C(=O)N[C@@H](CO)C(=O)N[C@@H](C)C(=O)N1CCC[C@H]1C(=O)N[C@H](C(=O)N[C@@H](CC(=O)O)C(=O)N1CCC[C@H]1C(=O)N[C@@H](CO)C(=O)N[C@@H](CO)C(=O)N1CCC[C@H]1C(=O)N[C@@H](Cc1c[nH]cn1)C(=O)N[C@@H](CO)C(=O)N[C@@H](Cc1ccc(O)cc1)C(N)=O)C(C)C)[C@@H](C)O [Antagonist 1–4]
- pIC50 [3]: 6.54
- Emax [3]: 101%
- pIC50 [4]: 5.95
- Emax [4]: 106%

Compound: CGRP8-37 (peptide)
- IC50 of inhibition of ADM-mediated CLR/RAMP2 β-arrestin signalling (EC80 of ADM; pair blocked: ADM + m25) [6]: > 10000 nM

Compound: CC[C@H](C)[C@H](NC(=O)[C@H](CCC(N)=O)NC(=O)[C@H](Cc1c[nH]cn1)NC(=O)[C@H](C)NC(=O)[C@H](CC(C)C)NC(=O)[C@H](CCCCN)NC(=O)[C@H](CCC(N)=O)NC(=O)[C@@H](NC(=O)[C@@H](NC(=O)[C@@H]1CSSC[C@H](NC(=O)CNC(=O)[C@@H](N)Cc2ccccc2)C(=O)N[C@@H](CCCNC(=N)N)C(=O)N[C@@H](Cc2ccccc2)C(=O)NCC(=O)N[C@@H]([C@@H](C)O)C(=O)N1)[C@@H](C)O)C(C)C)C(=O)N[C@@H](Cc1ccc(O)cc1)C(=O)N[C@@H](CCC(N)=O)C(=O)N[C@@H](Cc1ccccc1)C(=O)N[C@H](C(=O)N[C@@H](CC(=O)O)C(=O)N[C@@H](CCCCN)C(=O)N[C@@H](CC(=O)O)C(=O)N[C@@H](CCCCN)C(=O)N[C@@H](CC(=O)O)C(=O)N[C@@H](CC(N)=O)C(=O)N[C@H](C(=O)N[C@@H](C)C(=O)N1CCC[C@H]1C(=O)N[C@@H](CCCNC(=N)N)C(=O)N[C@@H](CO)C(=O)N[C@@H](CCCCN)C(=O)N[C@H](C(=O)N[C@@H](CO)C(=O)N1CCC[C@H]1C(=O)N[C@@H](CCC(N)=O)C(=O)NCC(=O)N[C@@H](Cc1ccc(O)cc1)C(N)=O)[C@@H](C)CC)C(C)C)[C@@H](C)O [ADM14-52, adrenomedullin 14–52, reference compound]
- CLR/RAMP1 Max Activity % of control [2]: 69 % of control
- CLR/RAMP2 Max Activity % of control [1]: 102 % of control

Now from value to compound:

- CLR/RAMP1 Max Activity % of control [2]: 103 % of control
Compound: CSCC[C@H](NC(=O)CNC(=O)CNC(=O)[C@H](CO)NC(=O)[C@H](CCCNC(=N)N)NC(=O)[C@H](CO)NC(=O)[C@H](CC(C)C)NC(=O)[C@H](CC(C)C)NC(=O)CNC(=O)[C@H](C)NC(=O)[C@H](CC(C)C)NC(=O)[C@H](CCCNC(=N)N)NC(=O)[C@H](Cc1c[nH]cn1)NC(=O)[C@@H](NC(=O)[C@@H](NC(=O)[C@@H]1CSSC[C@H](NC(=O)[C@H](C)N)C(=O)N[C@@H](CC(N)=O)C(=O)N[C@@H]([C@@H](C)O)C(=O)N[C@@H](C)C(=O)N[C@@H]([C@@H](C)O)C(=O)N1)C(C)C)[C@@H](C)O)C(=O)N[C@H](C(=O)N[C@@H](CCCCN)C(=O)N[C@@H](CO)C(=O)N[C@@H](CC(N)=O)C(=O)N[C@@H](Cc1ccccc1)C(=O)N[C@H](C(=O)N1CCC[C@H]1C(=O)N[C@H](C(=O)N[C@@H](CC(N)=O)C(=O)N[C@H](C(=O)NCC(=O)N[C@@H](CO)C(=O)N[C@@H](CCCCN)C(=O)N[C@@H](C)C(=O)N[C@@H](Cc1ccccc1)C(N)=O)C(C)C)[C@@H](C)O)C(C)C)C(C)C [CGRP, calcitonin gene-related peptide]

- EC50 of CLR/RAMP2 signalling (CHO-K1 cells, PathHunter β-Arrestin assay) [5]: 9 nM
Compound: adrenomedullin 14–52 (peptide)

- EC50 of CLR/RAMP2 signalling (CHO-K1 cells, PathHunter β-Arrestin assay) [5]: 70 nM
Compound: adrenomedullin 2 (peptide)

Source: paper PMC6544337, “Development of chimeric and bifunctional antagonists for CLR/RAMP receptors” (PLoS ONE, 2019)
